Data taken from article PMC11077050 (2024).

What was measured:
[1] = test system: 15N-labeled RNA 2 (RNA, riboswitch) CCGGCAUAGCUUGUCCUUUAAUGGUCCUAUGUCGAAAAUG; experiment: 1H NMR imino proton titration; settings: Na+ (25 mM NaCl, 15 mM sodium phosphate); pH 6.5, 15 °C, 10% D2O, 280 μM RNA, 0-4.5 equivalents; slow exchange in 0-1 equivalent range
[2] = test system: RNA 2 (RNA, riboswitch) CCGGCAUAGCUUGUCCUUUAAUGGUCCUAUGUCGAAAAUG; experiment: native ESI MS with CAD top-down MS (FT-ICR); settings: NH4+ 50 mM (ammonium bicarbonate), no divalent ions; 9:1 H2O/CH3OH, 0.25 mM piperazine, pH ~7.5; 1 μM RNA, 1-5 μM neomycin B; fourth molecule unspecific
[3] = test system: RNA 3 (RNA, riboswitch) CCGUCAUAGCUUGUCCUUUAAUGGUCCUAUGACGAAAAUG; experiment: native ESI MS with CAD top-down MS (FT-ICR); settings: NH4+ 50 mM (ammonium bicarbonate), no divalent ions; 9:1 H2O/CH3OH, 0.25 mM piperazine, pH ~7.5; 1 μM RNA, 1-5 μM neomycin B
[4] = test system: RNA 4 (RNA, riboswitch) CCCUGAUAGCUUGUCCUUUAAUGGUCCUAUCUGGAAAAUG; experiment: native ESI MS with CAD top-down MS (FT-ICR); settings: NH4+ 50 mM (ammonium bicarbonate), no divalent ions; 9:1 H2O/CH3OH, 0.25 mM piperazine, pH ~7.5; 1 μM RNA, 1-5 μM neomycin B
[5] = test system: RNA 5 (RNA, riboswitch) CCGGCAUAGCUUCUCCUUUAAUGGUCCUAUGUCGAAAAUG; experiment: native ESI MS with CAD top-down MS (Orbitrap); settings: motif C occupancy reduced to ~60% in 1:3 complexes

Measured: binding

NC[C@@H]1O[C@H](O[C@H]2[C@@H](O)[C@H](O[C@@H]3[C@@H](O)[C@H](N)C[C@H](N)[C@H]3O[C@H]3O[C@H](CN)[C@@H](O)[C@H](O)[C@H]3N)O[C@@H]2CO)[C@H](N)[C@@H](O)[C@@H]1O
yes: all assays above
